Read-outs that look alike come from different tables or passages of the source.

One assay concerns the target KLK1 (Homo sapiens, UniProt P06870). In words: Inhibitory activity against KLK1 in vitro (biochemical assay). An excerpt: Test Example 1. Test of the inhibitory activities of the compounds of the present invention against plasma kallikrein (PKa), KLK1 and FXIa in vitro. […]
Another assay deals with FXIa (Homo sapiens, UniProt P03951). In words: Inhibitory activity against FXIa in vitro (biochemical assay). The procedure: Test Example 1. Test of the inhibitory activities of the compounds of the present invention against plasma kallikrein (PKa), KLK1 and FXIa in vitro.
Sequence of FXIa (P03951 388-625 limits assumed): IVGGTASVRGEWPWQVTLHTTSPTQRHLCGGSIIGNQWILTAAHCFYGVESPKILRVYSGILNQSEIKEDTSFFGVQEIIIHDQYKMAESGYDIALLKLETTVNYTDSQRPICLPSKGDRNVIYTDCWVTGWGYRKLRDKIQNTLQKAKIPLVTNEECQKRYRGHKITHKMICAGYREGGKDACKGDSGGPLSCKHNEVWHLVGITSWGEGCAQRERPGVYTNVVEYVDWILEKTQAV
Sequence of FXIa (P03951 19-387 partner limits assumed): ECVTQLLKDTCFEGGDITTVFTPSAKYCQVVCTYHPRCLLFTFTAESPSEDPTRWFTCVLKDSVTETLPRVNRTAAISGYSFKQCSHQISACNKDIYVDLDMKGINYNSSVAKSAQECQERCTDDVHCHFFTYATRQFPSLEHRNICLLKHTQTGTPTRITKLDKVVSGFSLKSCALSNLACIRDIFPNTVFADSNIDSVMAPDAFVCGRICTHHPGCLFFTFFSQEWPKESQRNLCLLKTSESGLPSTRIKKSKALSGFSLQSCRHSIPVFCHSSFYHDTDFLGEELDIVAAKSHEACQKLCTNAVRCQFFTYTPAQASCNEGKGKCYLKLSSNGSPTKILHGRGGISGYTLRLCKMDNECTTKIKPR
PKK (R & D, Cat # 2497-SE) and Pro-Phe-Arg-AMC (Nanjing Peptide, Cat # NJP23946) solutions were prepared in reaction buffer (50 mM Tris-HCl, pH 7.5, 250 mM NaCl). The final concentrations of enzyme protein and Pro-Phe-Arg-AMC in the reaction mixture were 10 nM and 60 µM, respectively. The starting concentration of the positive reference substance Avoralstat was 100 nM, 3-fold dilution, 10 + 0 dose. 0.05 µL of compound in 100% DMSO was delivered to a 384-well plate by an acoustic liquid delivery technique (Echo665; nanoliter range). Compound duplex test. 5 µL of 2 × enzyme solution was transferred to a 384 reaction plate and centrifuged at 1000 rpm for 1 minute, incubated at 25°C for 15 minutes; 5 µL of 2 × Pro-Phe-Arg-AMC solution was transferred to a 384 reaction plate, centrifuged at 1000 rpm for 1 minute, incubated at 25°C for 3 hours. […] IC50 values and nonlinear regression curve fitting were obtained using GraphPad Prism software.

The target of a further assay is T1, plasma kallikrein (PKa) (Homo sapiens, UniProt P03952).
T1 construct: purchased R & D 2497-SE
T1 sequence (P03952 391-638 limits assumed): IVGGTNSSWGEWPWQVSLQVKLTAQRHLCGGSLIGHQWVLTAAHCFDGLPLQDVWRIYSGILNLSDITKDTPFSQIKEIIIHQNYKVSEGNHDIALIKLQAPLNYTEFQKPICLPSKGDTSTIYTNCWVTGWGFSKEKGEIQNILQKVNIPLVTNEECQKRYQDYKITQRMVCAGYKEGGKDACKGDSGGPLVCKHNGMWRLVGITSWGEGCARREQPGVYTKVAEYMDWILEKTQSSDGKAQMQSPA
T1 sequence (P03952 20-390 partner limits assumed): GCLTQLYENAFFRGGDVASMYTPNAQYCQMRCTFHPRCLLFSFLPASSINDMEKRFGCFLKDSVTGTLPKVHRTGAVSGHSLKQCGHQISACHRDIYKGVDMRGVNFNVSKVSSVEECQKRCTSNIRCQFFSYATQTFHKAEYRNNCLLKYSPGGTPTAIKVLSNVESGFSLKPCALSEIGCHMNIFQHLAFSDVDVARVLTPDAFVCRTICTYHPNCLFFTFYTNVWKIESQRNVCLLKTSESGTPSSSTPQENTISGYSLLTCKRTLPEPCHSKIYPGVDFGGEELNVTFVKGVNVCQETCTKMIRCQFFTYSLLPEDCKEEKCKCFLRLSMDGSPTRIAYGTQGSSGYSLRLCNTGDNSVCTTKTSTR
Kind of assay: Inhibitory activity against plasma kallikrein in vitro (fluorescence intensity enzyme assay, Pro-Phe-Arg-AMC substrate). The conditions noted are these: Pro-Phe-Arg-AMC substrate. The format is biochemical. In outline:
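Fluorescence intensity enzyme assay with 10 nM enzyme and 60 µM Pro-Phe-Arg-AMC (final concentrations). Compounds in DMSO, tested in duplicate over a dose series. IC50 from nonlinear regression curve fitting.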

The mark [1] stands for this setting: plasma kallikrein enzyme assay, read-out: PKa IC50.

Sequence of KLK1 (P06870 25-262, species assumed): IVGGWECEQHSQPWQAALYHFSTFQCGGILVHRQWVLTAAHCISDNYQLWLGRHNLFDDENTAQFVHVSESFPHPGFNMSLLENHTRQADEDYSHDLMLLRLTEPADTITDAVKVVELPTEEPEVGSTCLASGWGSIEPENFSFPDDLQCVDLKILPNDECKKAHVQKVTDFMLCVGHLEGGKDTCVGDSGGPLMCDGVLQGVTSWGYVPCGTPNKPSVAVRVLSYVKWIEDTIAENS

Consider `Cn1cc(F)c2cnc(CNC(=O)c3cnn(Cc4ccc(Cn5ccccc5=O)cc4)c3)c(F)c21` [Compound 370], for which the IC50 is greater than 10 µM against KLK1 (values given in µM), greater than 10 µM against FXIa (values given in µM) and 10.2 nM on plasma kallikrein (PKa) (setting [1]).

Regarding `COCc1cn(Cc2ccc(Cn3ccccc3=O)cc2)nc1C(=O)NCc1c(C)cc(N)nc1C` [Compound 60], the IC50 is greater than 10 µM at KLK1 (values given in µM), greater than 10 µM against FXIa (values given in µM) and 0.65 nM on plasma kallikrein (PKa) (setting [1]).

As to `Cc1cc(C)n(Cc2ccc(Cn3cc(C(=O)NCc4ccc(C(=N)N)cc4)cn3)cc2)n1` [Compound 366], the IC50 against KLK1 (values given in µM) is greater than 10 µM; on FXIa (values given in µM), greater than 10 µM; at plasma kallikrein (PKa) (setting [1]) it was 0.07 nM.

Take `Cc1cc(N)nc(C)c1CNC(=O)c1ccn(Cc2ccc(Cn3ccccc3=O)cc2)c1` [Compound 61]: the IC50 is greater than 10 µM on KLK1 (values given in µM), greater than 10 µM against FXIa (values given in µM) and 0.12 nM on plasma kallikrein (PKa) (setting [1]).

`COc1ccc(F)c(CNC(=O)c2cn(Cc3ccc(Cn4ccccc4=O)cc3)nc2COCCN(C)C)c1F` [Compound 222]: the IC50 was greater than 10 µM at KLK1 (values given in µM), greater than 10 µM on FXIa (values given in µM) and 1.94 nM on plasma kallikrein (PKa) (setting [1]).

On to `Cc1cc(N)nc(C)c1CNC(=O)c1cn(Cc2ccc(Cn3ccccc3=O)cc2)nc1C(F)(F)F` [Compound 116], for which the IC50 on KLK1 (values given in µM) is greater than 10 µM; on FXIa (values given in µM), greater than 10 µM; on plasma kallikrein (PKa) (setting [1]), 0.07 nM.

As to `Cn1cnc2cnc(CNC(=O)c3cnn(Cc4ccc(Cn5ccccc5=O)cc4)c3)c(F)c21` [Compound 377], the IC50 is greater than 10 µM against KLK1 (values given in µM), greater than 10 µM against FXIa (values given in µM) and 1.42 nM on plasma kallikrein (PKa) (setting [1]).

For `Cc1cc(Cn2cc(C(=O)NCc3ccc(C(=N)N)cc3)cn2)cc(C)c1CC1CC1` [Compound 381], the IC50 against KLK1 (values given in µM) was greater than 10 µM; at FXIa (values given in µM), greater than 10 µM; at plasma kallikrein (PKa) (setting [1]), 0.03 nM.

Turning to `O=C(NCc1ncc2cc[nH]c2c1F)c1cn(Cc2ccc(Cn3ccccc3=O)cc2)nc1C1COC1` [Compound 337, N-((7-fluoro-1H-pyrrolo[3,2-c]pyridin-6-yl)methyl)-3-(oxetan-3-yl)-1-(4-((2-oxopyridin-1(2H)-yl)methyl)benzyl)-1H-pyrazole-4-carboxamide], the half-maximal inhibitory concentration (IC50) at KLK1 (values given in µM) was greater than 10 µM; against FXIa (values given in µM), greater than 10 µM; at plasma kallikrein (PKa) (setting [1]) it was 2.23 nM.

As to `Cn1ccc2cnc(CNC(=O)c3cn(Cc4ccc(Cn5ccccc5=O)cc4)nc3C3COC3)c(F)c21` [Compound 338], the IC50 against KLK1 (values given in µM) is greater than 10 µM; on FXIa (values given in µM), greater than 10 µM; on plasma kallikrein (PKa) (setting [1]) it was 1.38 nM.

On to `Cc1cc(C(=N)N)cc(C)c1CNC(=O)c1cnn(Cc2ccc(Cn3ccccc3=O)cc2)c1` [Compound 314], for which the IC50 against KLK1 (values given in µM) was greater than 10 µM; against FXIa (values given in µM), greater than 10 µM; at plasma kallikrein (PKa) (setting [1]), 0.32 nM.

Take `COCc1nn(Cc2ccc(Cn3ccccc3=O)cc2)cc1C(=O)NCc1ccc(C(=N)N)nc1` [Compound 361]: the IC50 at KLK1 (values given in µM) is greater than 10 µM; against FXIa (values given in µM), greater than 10 µM; on plasma kallikrein (PKa) (setting [1]), 0.09 nM.

With `COCc1nn(Cc2ccc(Cn3ccccc3=O)cc2)cc1C(=O)NCc1cn2c(n1)CNCC2` [Compound 118], the values for the IC50 on KLK1 (values given in µM), against FXIa (values given in µM) and on plasma kallikrein (PKa) (setting [1]) were greater than 10 µM, greater than 10 µM and 0.92 nM, respectively.

With `COCc1nn(Cc2ccc(Cn3ccccc3=O)cc2)cc1C(=O)NCc1ncc2c(c1F)OCC2` [Compound 396], the IC50 was greater than 10 µM on KLK1 (values given in µM), greater than 10 µM against FXIa (values given in µM) and 2.1 nM at plasma kallikrein (PKa) (setting [1]).

On to `N=C(N)c1ccc(CNC(=O)c2cnn(Cc3ccc(Cn4ccccc4=O)cc3)c2)c(F)c1` [Compound 341], for which the results for the IC50 on KLK1 (values given in µM), at FXIa (values given in µM) and at plasma kallikrein (PKa) (setting [1]) were greater than 10 µM, greater than 10 µM and 0.07 nM, respectively.

With `Cn1ccc2cnc(CNC(=O)c3cnn(Cc4ccc(Cn5ccccc5=O)cc4)c3)c(F)c21` [Compound 356], the IC50 at KLK1 (values given in µM) was greater than 10 µM; against FXIa (values given in µM), greater than 10 µM; at plasma kallikrein (PKa) (setting [1]), 2.23 nM.

`N=C(N)c1ccc(CNC(=O)c2cnn(Cc3cn4cc(C5CC5)ccc4n3)c2)cc1` [Compound 15]: the IC50 is greater than 10 µM at KLK1 (values given in µM), greater than 10 µM at FXIa (values given in µM) and 0.898 nM on plasma kallikrein (PKa) (setting [1]).

`COCc1nn(Cc2ccc(Cn3ccccc3=O)cc2)cc1C(=O)NCc1c(C)cn2cncc2c1C` [Compound 147]: the IC50 on KLK1 (values given in µM) was greater than 10 µM; against FXIa (values given in µM), greater than 10 µM; at plasma kallikrein (PKa) (PKa IC50, plasma kallikrein enzyme assay), 1.57 nM.

Turning to `COCc1nn(Cc2ccc(N3CC4C(C3)C4(F)F)cc2C#N)cc1C(=O)NCc1cc2cnccc2[nH]1` (stereo not drawn) [Compound 157, N-((1H-pyrrolo[3,2-c]pyridin-2-yl)methyl)-1-(2-cyano-4-(6,6-difluoro-3-azabicyclo[3.1.0]hexan-3-yl)benzyl)-3-(methoxymethyl)-1H-pyrazole-4-carboxamide], the IC50 at KLK1 (values given in µM) was greater than 10 µM; at FXIa (values given in µM), greater than 10 µM; at plasma kallikrein (PKa) (setting [1]) it was 1.89 nM.

With `N=C(N)c1ccc(CNC(=O)c2cnn(Cc3cc(Cl)c(C(=O)C4CC4)c(Cl)c3)c2)cc1` [Compound 393], the IC50 on KLK1 (values given in µM) was greater than 10 µM; against FXIa (values given in µM), greater than 10 µM; on plasma kallikrein (PKa) (setting [1]), 1.05 nM.

As to `O=C(NCc1ncc2cc[nH]c2c1F)c1cnn(Cc2ccc(Cn3ccccc3=O)cc2)c1` [Compound 362, N-((7-fluoro-1H-pyrrolo[3,2-c]pyridin-6-yl)methyl)-1-(4-((2-oxopyridin-1(2H)-yl)methyl)benzyl)-1H-pyrazole-4-carboxamide], the IC50 was greater than 10 µM against KLK1 (values given in µM), greater than 10 µM against FXIa (values given in µM) and 2.57 nM at plasma kallikrein (PKa) (setting [1]).

Regarding `N=C(N)c1ccc(CNC(=O)c2cnn(Cc3ccc(OC4CC4)cc3)c2)cc1` [Compound 354], the IC50 is greater than 10 µM against KLK1 (values given in µM), greater than 10 µM at FXIa (values given in µM) and 2.45 nM on plasma kallikrein (PKa) (setting [1]).

Take `COc1ccnc(CNC(=O)c2cn(Cc3ccc(Cn4ccccc4=O)cc3)nc2CN2CCN(C)CC2)c1F` [Compound 213]: the values for the IC50 against KLK1 (values given in µM), against FXIa (values given in µM) and at plasma kallikrein (PKa) (setting [1]) were greater than 10 µM, greater than 10 µM and 35 nM, respectively.

Turning to `COCc1nn(Cc2ccc(C3CCCCC3)c(C(F)(F)F)c2)cc1C(=O)NCc1ccc(C(=N)N)cc1` [Compound 153], the IC50 was greater than 10 µM against KLK1 (values given in µM), greater than 10 µM against FXIa (values given in µM) and 0.18 nM at plasma kallikrein (PKa) (setting [1]).

Take `CN1CCc2cnc(CNC(=O)c3cn(Cc4ccc(Cn5ccccc5=O)cc4)nc3C(F)(F)F)c(F)c21` [Compound 389]: the IC50 on KLK1 (values given in µM) was greater than 10 µM; at FXIa (values given in µM), greater than 10 µM; on plasma kallikrein (PKa) (setting [1]), 1.45 nM.

Regarding `Cc1cc(N)nc(C)c1CNC(=O)c1csc(Cc2ccc(Cn3ccccc3=O)cc2)n1` [Compound 68], the IC50 is greater than 10 µM on KLK1 (values given in µM), greater than 10 µM against FXIa (values given in µM) and 0.32 nM at plasma kallikrein (PKa) (setting [1]).

Take `Cc1cn2cncc2c(C)c1CNC(=O)c1cn(Cc2ccc(Cn3ccccc3=O)cc2)nc1C(F)(F)F` [Compound 203]: the IC50 against KLK1 (values given in µM) was greater than 10 µM; against FXIa (values given in µM) it was greater than 10 µM; at plasma kallikrein (PKa) (setting [1]) it was 0.53 nM.

Consider `Cc1cc(N)nc(C)c1CNC(=O)c1ncn(Cc2cn3cc(C4CC4)ccc3n2)n1` [Compound 47], for which the values for the IC50 at KLK1 (values given in µM), against FXIa (values given in µM) and on plasma kallikrein (PKa) (setting [1]) were greater than 10 µM, greater than 10 µM and 0.18 nM, respectively.

`CCn1cnc2c1CC[C@H]2NC(=O)c1cn(Cc2ccc(Cn3ccccc3=O)cc2)nc1COC` [Compound 130]: the values for the IC50 on KLK1 (values given in µM), against FXIa (values given in µM) and on plasma kallikrein (PKa) (setting [1]) were greater than 10 µM, greater than 10 µM and 1.09 nM, respectively.

For `Cc1cc(N)nc(C)c1CNC(=O)c1cn(Cc2ccc3ncc(Cl)cc3c2)nn1` [Compound 9, N-((6-amino-2,4-dimethylpyridin-3-yl)methyl)-1-(3-chloroquinolin-6-yl)methyl-1H-1,2,3-triazole-4-carboxamide], the half-maximal inhibitory concentration (IC50) on KLK1 (values in nM) is less than 0.5 µM; against FXIa (values in nM), less than 0.5 µM; at plasma kallikrein (PKa) (setting [1]), 0.406 nM.

Regarding `N=C(N)c1ccc(CNC(=O)c2cnn(Cc3cc(F)c(C(=O)C4CC4)c(F)c3)c2)cc1` [Compound 394], the IC50 is greater than 10 µM on KLK1 (values given in µM), greater than 10 µM on FXIa (values given in µM) and 1.56 nM on plasma kallikrein (PKa) (setting [1]).

With `O=C(NCc1ncc2c(c1F)OCC2)c1cnn(Cc2ccc(Cn3ccccc3=O)cc2)c1` [Compound 395], the IC50 against KLK1 (values given in µM) was greater than 10 µM; against FXIa (values given in µM), greater than 10 µM; on plasma kallikrein (PKa) (setting [1]), 1.68 nM.

Turning to `Cc1cc(N)nc(C)c1CNC(=O)c1cn(Cc2ccc(Cn3ccccc3=O)cc2)nc1C(F)F` [Compound 69, N-((6-amino-2,4-dimethylpyridin-3-yl)methyl)-3-(difluoromethyl)-1-(4-(2-oxopyridin-1(2H)-yl)methylbenzyl)-1H-pyrazole-4-carboxamide], the IC50 against KLK1 (values given in µM) was greater than 10 µM; against FXIa (values given in µM), greater than 10 µM; at plasma kallikrein (PKa) (setting [1]) it was 0.076 nM.

Regarding `N=C(N)c1ccc(CNC(=O)c2cnn(Cc3ccc(Cn4ccccc4=O)cc3)c2)cn1` [Compound 353], the IC50 is greater than 10 µM on KLK1 (values given in µM), greater than 10 µM against FXIa (values given in µM) and 0.79 nM at plasma kallikrein (PKa) (setting [1]).

`COCc1cn(Cc2ccc(CN3CCCCC3=O)cc2)nc1C(=O)NCc1c(C)cc(N)nc1C` [Compound 74]: the IC50 at KLK1 (values given in µM) is greater than 10 µM; against FXIa (values given in µM), greater than 10 µM; at plasma kallikrein (PKa) (setting [1]), 5.7 nM.

For orientation: IC50 means the point on the concentration scale where inhibition reaches its midpoint.

These data come from patent EP4737450A1 (Longwood Pharmaceuticals (Hangzhou) Co., Ltd, priority 2023, dated 2025).
